# Square brackets hold non-standard residues; d marks the D form. Peptide text beside a SMILES is read from it. * marks the point of attachment. 1Nal = N[C@@H](Cc1cccc2ccccc12)C(=O)O; Npys = O=[N+]([O-])c1cccnc1S*; Leu(ol) = CC(C)C[C@H](N)CO; Cbz = O=C(OCc1ccccc1)*; Mpa = O=C(O)CCS
# Target: T1, human renin (Homo sapiens, UniProt P00797)
# T1 sequence (P00797 67-406): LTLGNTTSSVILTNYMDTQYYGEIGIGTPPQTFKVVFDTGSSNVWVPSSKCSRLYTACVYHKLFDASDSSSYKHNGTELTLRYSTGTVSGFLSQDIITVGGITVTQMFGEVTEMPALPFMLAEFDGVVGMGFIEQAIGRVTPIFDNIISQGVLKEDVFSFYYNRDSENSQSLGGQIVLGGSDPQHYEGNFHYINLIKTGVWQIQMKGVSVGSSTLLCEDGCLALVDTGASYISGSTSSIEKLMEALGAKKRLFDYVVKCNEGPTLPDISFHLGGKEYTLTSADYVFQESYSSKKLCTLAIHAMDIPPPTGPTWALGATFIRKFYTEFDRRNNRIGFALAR
# Assay: Inhibition of renin activity (human renin with sheep angiotensinogen, assay of angiotensin I)
# Format: biochemical
# Conditions: test compound 5 × 10^-5 mole/liter, phosphate buffer pH 7.3, 10 minutes at 37° C., mean of 3 or 4 experiments
# Method: The ability of various compounds of the invention to inhibit the activity of renin was determined according to the following method.
# Specifically, each test compound was dissolved in 60% v/v aqueous ethanol. Human renin activity in the presence and absence of each compound was measured using sheep angiotensinogen. The total volume of 1 ml of assay mixture contained 0.1 mole/liter phosphate buffer (pH 7.3), human renin (equivalent to 0.5 ng angiotensin I per ml per minute), sheep angiotensinogen (equivalent to 200 ng angiotensin I), the indicated concentration of the test compound, 6% ethanol and angiotensinase inhibitors (10 mmole/liter sodium ethylenediaminetetraacetate and 3.4 mmole/liter 8-hydroxyquinoline). The mixture was allowed to react for 10 minutes at 37° C., and then the reaction was stopped by placing the reaction tube in a boiling water bath for 5 minutes. The mixture was then centrifuged and the supernatant (0.05-0.1 ml) was used to assay remaining angiotensin I.
# An identical experiment was carried out, as a control, except that the test compound was omitted. From the values obtained were calculated the % inhibition of renin activity achieved by each test compound. The results are shown in the following Table, in which the compounds of the invention are identified by the numbers assigned to them in the foregoing list. The values given are the mean of 3 or 4 experiments.
row,% Inhibition [%],SMILES
1,54,"CC(C)C[C@@H](C=O)NC(=O)[C@H](Cc1c[nH]cn1)NC(=O)[C@H](Cc1cccc2ccccc12)NC(=O)OCc1ccccc1 [Compound 3, N-benzyloxycarbonyl-3-(1-naphthyl)-L-alanyl-L-histidyl-L-leucinal] (Cbz-[1Nal]-His-Leu-aldehyde)"
2,71,"CC(C)C[C@@H](CO)NC(=O)[C@H](Cc1c[nH]cn1)NC(=O)[C@H](Cc1cccc2ccccc12)NC(=O)OCc1ccccc1 [Compound 14, N-benzyloxycarbonyl-3-(1-naphthyl)-L-alanyl-L-histidyl-L-leucinol] (Cbz-[1Nal]-His-[Leu(ol)])"

# Second part, the molecule before the results:
row,SMILES,% Inhibition [%]
1,"CC(C)C[C@@H](CO)NC(=O)[C@H](Cc1c[nH]cn1)NC(=O)[C@H](Cc1ccccc1)NC(=O)CCSSc1ncccc1[N+](=O)[O-] [Compound 11, N-[3-(3-nitro-2-pyridyldithio)propionyl]-L-phenylalanyl-L-histidyl-L-leucinol] ([Mpa](Npys)FH[Leu(ol)])",70
2,"CC(C)C[C@@H](CO)NC(=O)[C@H](Cc1c[nH]cn1)NC(=O)[C@H](Cc1ccccc1)NC(=O)OCc1ccccc1 [Compound 10, N-benzyloxycarbonyl-L-phenylalanyl-L-histidyl-L-leucinol] (Cbz-Phe-His-[Leu(ol)])",58
3,"CC(C)C[C@@H](C=O)NC(=O)[C@H](Cc1c[nH]cn1)NC(=O)[C@H](Cc1ccccc1)NC(=O)CCSSc1ncccc1[N+](=O)[O-] [Compound 2, N-[3-(3-nitro-2-pyridyldithio)propionyl]-L-phenylalanyl-L-histidyl-L-leucinal] ([Mpa](Npys)FHL-aldehyde)",70
4,"CC(C)C[C@@H](C=O)NC(=O)[C@H](Cc1c[nH]cn1)NC(=O)[C@H](Cc1ccccc1)NC(=O)CCCc1ccccc1 [Compound 1, N-(4-phenylbutyryl)-L-phenylalanyl-L-histidyl-L-leucinal]",53

# From US4548926A, “Hypotensive peptides and their use” (Sankyo Company Limited, priority 1983, dated 1985)
